# Assay results published in patent US20260191874A1, “FUSED AMINO PYRIMIDINE COMPOUNDS FOR TREATMENT OF AUTISM SPECTRUM DISORDER, OBSESSIVE COMPULSIVE DISORDER AND TICS” (Ovid Therapeutics Inc., priority 2024, published 2026).
# What was measured:
# [1] = design: species or system mice; settings: in vivo
# acute brain slices = test: Acute brain slices exposed to 0-Mg
# NKCC1 = molecular target: T1, NKCC1 (Homo sapiens, UniProt P55011); test: Tl+ flux assay in HEK-293 cells expressing NKCC1; assay type: cell-based; settings: read-out: concentration at which effects on NKCC1 were seen (EC50 chart, FIG. 1G)
# T1 construct: expressed in transfected cells; host or cells: HEK-293
# T1 sequence (P55011 1-1212): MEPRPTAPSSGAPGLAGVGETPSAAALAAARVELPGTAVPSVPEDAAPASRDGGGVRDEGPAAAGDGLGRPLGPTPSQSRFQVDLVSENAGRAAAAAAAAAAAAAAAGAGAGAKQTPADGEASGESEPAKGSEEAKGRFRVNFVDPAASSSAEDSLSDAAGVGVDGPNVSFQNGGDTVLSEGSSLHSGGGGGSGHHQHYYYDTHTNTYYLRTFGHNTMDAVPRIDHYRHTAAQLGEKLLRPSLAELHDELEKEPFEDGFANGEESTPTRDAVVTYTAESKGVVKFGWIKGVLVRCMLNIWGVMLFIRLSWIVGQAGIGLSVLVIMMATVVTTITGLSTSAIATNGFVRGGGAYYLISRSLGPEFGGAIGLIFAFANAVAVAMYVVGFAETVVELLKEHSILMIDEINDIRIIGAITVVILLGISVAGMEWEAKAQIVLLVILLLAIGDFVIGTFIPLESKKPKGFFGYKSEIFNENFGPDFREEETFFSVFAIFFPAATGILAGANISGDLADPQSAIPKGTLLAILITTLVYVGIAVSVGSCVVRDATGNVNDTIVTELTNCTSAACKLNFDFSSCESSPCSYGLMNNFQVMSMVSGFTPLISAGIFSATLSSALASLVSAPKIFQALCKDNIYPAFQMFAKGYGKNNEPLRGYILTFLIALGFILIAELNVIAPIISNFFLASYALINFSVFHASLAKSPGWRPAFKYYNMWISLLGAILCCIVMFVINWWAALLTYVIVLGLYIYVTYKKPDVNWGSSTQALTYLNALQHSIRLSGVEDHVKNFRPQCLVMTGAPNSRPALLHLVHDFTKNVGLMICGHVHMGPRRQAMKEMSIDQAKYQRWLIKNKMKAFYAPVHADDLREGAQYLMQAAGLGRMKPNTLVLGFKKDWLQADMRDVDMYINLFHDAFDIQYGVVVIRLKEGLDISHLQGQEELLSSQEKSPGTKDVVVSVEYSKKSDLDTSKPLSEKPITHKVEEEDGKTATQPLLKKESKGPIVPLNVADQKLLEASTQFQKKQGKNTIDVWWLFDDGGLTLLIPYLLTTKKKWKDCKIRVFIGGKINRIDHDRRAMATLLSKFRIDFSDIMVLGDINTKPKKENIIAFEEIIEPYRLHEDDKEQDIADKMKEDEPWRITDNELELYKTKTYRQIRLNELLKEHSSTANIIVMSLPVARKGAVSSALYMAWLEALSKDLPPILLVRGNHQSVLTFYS
# Protocol: FLIPR TI Flux assay. HEK-293 cells were washed with HBSS, and then incubated with loading buffer containing TI sensitive fluorescent dye (https://www.moleculardevices.com), 20 μM bumetanide 20 μM ouabain and 2.5 mM probenecid for 1 h at room temperature (RT) under control conditions or with drugs in the dark using a FlexStation 3 microplate reader (Molecular Devices) and imaged […] for 30 min. Stimulus buffer was added containing 5 mM K^+/0.5 mM Tl^+ and cells were imaged every 1.5 over a 190 second time course The initial rate Tl^+ uptake (Relative Fluorescence Units (RFU) per second) was determined following addition of the stimulus buffer as outlined previously (Conway et al., 2017, supra) (Lee et al., 2022, supra).
# Several studies have shown that the activity and plasma membrane accumulation of KCC2 is potentiated via phosphorylation of S940, a process mediated by the activity of protein kinase C and protein phosphatase 1 (Lee et al., 2011, supra; Lee et al., J Biol Chem 282, 29777-29784 (2007); Moore et al., Proc. Natl. Acad. Sci. U.S.A 115, 10166-10171 (2018); Moore et al., Trends Neurosci. 40, 555-571 (2017); Silayeva et al., Proc. Natl. Acad. Sci. U.S.A 112, 3523-3528 (2015)). […] Compared to KCC2, effects on KCC3, KCC4, and NKCC1 were only seen at concentrations more than 35-fold that of KCC2 (≥100 μM) (FIG. 1G).
compound,measurement,setting,value
"C[C@@H]1CN(c2nc3c(c(Nc4ccc(C5CCCCC5)cc4)n2)COC3)CCO1 [Compound A, (R)—N-(4-cyclohexylphenyl)-2-(2-methylmorpholino)-5,7-dihydrofuro[3,4-d]pyrimidin-4-amine]",gross effects on mouse behavior,[1],no gross effects
same,total distance traveled in open field,"[1]; mouse, sc, 50 mg/kg",6134.2±235.3 cm
same,neuronal Cl− accumulation and development of late recurrent discharges (LRDs),acute brain slices,reduced
same,EC50,NKCC1,≥ 100 µM
